We go through three molecules from patent US20060241177A1, “Novel compounds, pharmaceutical compositions containing same, and methods of use for same” (priority 2002, published 2006).

Molecules are shown by their SMILES.

In data set [1] the test system is HCT-116 human colon cancer xenografts. Put plainly: In vivo anti-tumor test, HCT-116 subcutaneous flank xenografts. Further details: species or system nu/nu female mice. As to conditions: 10 mg/kg i.p. repeated, 11 treated animals, day 10, from repeated i.p. injection. The protocol:
In Vivo Testing for Anti-Tumor Activity
Subcutaneous flank xenografts of the human colon cancer cell line, HCT-116 in nu/nu female mice (Harlan) were used to study the anti-tumor effects of Compound 1 in vivo. All animal experiments complied with institutional animal care guidelines. 10^7 HCT-116 cells (˜0.1 ml packed cells) were xenografted from culture in DMEM supplemented with 10% FBS into […]. Treatment began when measurable tumors developed about 3 days after inoculation. Compound 1 (10 mg/kg) was diluted into 40 μl DMSO and treated intraperitoneally (i.p.) 11 animals received JMM-III-231 10 mg/kg, i.p., at days indicated by arrows, and 11 received DMSO control. Tumors were measured on days indicated. […] Error bars represent standard error of the mean.

A further data set addresses viral HIV protease (Human immunodeficiency virus type 1 group M subtype B, UniProt P04585). As to conditions: Moelling et al. 1990; cited from earlier work.
Data set [2] addresses rat liver acyl-CoA synthetase. As to conditions: Tomoda et al. 1987; Omura et al. 1986; read-out: 50% inhibition of rat liver acyl-CoA synthetase; cited from earlier work.
The subject of a further data set is Raji cells. The conditions noted are these: Tomoda et al. 1991; cited from earlier work.

As to `C=CCNC(=O)C1C(=C)C(=O)O[C@H]1CCCCCCCC` (mixture of isomers) [Compound 1, (±)-α-Methylene-γ-butyrolactone-5-octyl-4-allyl amide], the “Death of treated mice in xenograft study” value in data set [1] was “One Compound 1 treated mouse died on day 10”.

For the molecule `C/C=C/C/C=C/CCC(=O)[C@H]1O[C@H]1C(N)=O` [cerulenin, (2S,3R)-2,3-epoxy-4-oxo-7,10 dodecadienoyl amide], the “concentration for inhibition of viral HIV protease” value at viral HIV protease was 5 mg/mL.

Take `CCCC=CCC=CC=CC=NN=NO` [Triacsin C, 1-hydroxy-3-(E, E, E-2′,4′,7′-undecatrienylidine) triazene]: the IC50 in data set [2] is 8.7 µM. In addition, the “concentration causing growth inhibition in Raji cells” value in the data set with Raji cells is 1.0 µM.
